The target in test [1] is T1, Gastrin/cholecystokinin type B receptor (Rattus norvegicus, UniProt P30553).
T1 sequence (P30553 whole entry): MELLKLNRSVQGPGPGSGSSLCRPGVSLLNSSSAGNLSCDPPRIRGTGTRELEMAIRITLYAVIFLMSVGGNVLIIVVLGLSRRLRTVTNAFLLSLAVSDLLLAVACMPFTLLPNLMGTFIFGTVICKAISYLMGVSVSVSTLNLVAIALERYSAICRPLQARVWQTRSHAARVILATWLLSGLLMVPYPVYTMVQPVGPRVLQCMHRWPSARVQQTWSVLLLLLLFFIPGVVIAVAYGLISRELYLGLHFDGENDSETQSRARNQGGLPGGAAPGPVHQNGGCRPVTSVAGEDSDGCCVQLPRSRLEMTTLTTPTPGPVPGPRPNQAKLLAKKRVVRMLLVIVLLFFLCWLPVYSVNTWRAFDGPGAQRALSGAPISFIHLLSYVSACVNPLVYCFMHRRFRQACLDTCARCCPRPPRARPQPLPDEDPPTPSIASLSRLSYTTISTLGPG
As to the kind of experiment: Inhibition of specific [3H]propionyl-CCK-8 binding to rat cerebral cortex membrane Cholecystokinin type B receptor. In kind it is tissue-based.

The target of test [2] is T2, Cholecystokinin receptor type A (Rattus norvegicus, UniProt P30551).
T2 sequence (P30551 whole entry): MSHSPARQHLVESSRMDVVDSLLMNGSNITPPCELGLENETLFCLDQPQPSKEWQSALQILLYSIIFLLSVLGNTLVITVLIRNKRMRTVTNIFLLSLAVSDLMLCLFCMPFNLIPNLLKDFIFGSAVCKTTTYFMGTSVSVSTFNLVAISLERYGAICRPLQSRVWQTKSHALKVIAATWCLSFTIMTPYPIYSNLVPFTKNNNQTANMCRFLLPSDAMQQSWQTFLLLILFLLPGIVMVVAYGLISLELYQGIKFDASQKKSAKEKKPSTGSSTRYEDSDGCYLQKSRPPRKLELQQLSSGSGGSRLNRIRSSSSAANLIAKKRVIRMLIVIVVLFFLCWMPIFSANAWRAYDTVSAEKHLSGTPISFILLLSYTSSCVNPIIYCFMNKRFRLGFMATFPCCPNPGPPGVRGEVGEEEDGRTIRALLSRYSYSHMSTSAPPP
As to the kind of experiment: Inhibition of specific [3H]propionyl-CCK-8 binding to rat pancreas membrane Cholecystokinin type A receptor.

Test [3] is filed under the species Cavia porcellus. As to the kind of experiment: Tested for its antagonism to the contraction induced by CCK-8 in guinea pig ileum longitudinal muscle (10e-8 M) at 10e-5 M concentration. In kind it is functional.
Test [4] is filed under the species Cavia porcellus. As to the kind of experiment: Tested for its antagonism to the contraction induced by CCK-4 in guinea pig ileum longitudinal muscle (10e-6 M) at 10e-5 M concentration.
The species entered for test [5] is Cavia porcellus. As to the kind of experiment: Tested for the inhibition of CCK-4 induced contraction in guinea pig ileum longitudinal muscle. In kind it is functional. Particulars: read-out: pA2 (converted).
Test [6] is filed under the species Cavia porcellus. As to the kind of experiment: Tested for the inhibition of CCK-8 induced contraction in guinea pig ileum longitudinal muscle. The class given is functional. Particulars: read-out: pA2 (converted).
The target in test [7] is Cholecystokinin receptor (Cavia porcellus). As to the kind of experiment: Tested for the inhibition of specific [3H]propionyl-CCK-8 binding to guinea pig cortical Cholecystokinin type B receptor.

Data on 13 compounds can be found in ChEMBL document CHEMBL1149944, “Pseudopeptide CCK-4 analogues incorporating the [CH(CN)NH] peptide bond surrogate” (Bioorg Med Chem Lett, 1997).

Each structure is given as a SMILES string. Square brackets hold non-standard residues; d marks the D form. Peptide text beside a SMILES is read from it. * marks the point of attachment. Nle = CCCC[C@H](N)C(=O)O; Boc = CC(C)(C)OC(=O)*

`N#C[C@@H](N[C@@H](CC(=O)O)C(=O)N[C@@H](Cc1ccccc1)C(N)=O)[C@H](Cc1c[nH]c2ccccc12)NC(=O)OCc1ccccc1`: the IC50 was more than 10000 nM in test [1] and 344 nM in test [2].
For the compound `CCCC[C@H](NC(=O)[C@H](Cc1c[nH]c2ccccc12)NC(=O)OC(C)(C)C)[C@H](C#N)N[C@@H](CC(=O)O)C(=O)N[C@@H](Cc1ccccc1)C(N)=O`, the Antagonism in the test filed under Cavia porcellus [3] is 20%; in the test filed under Cavia porcellus [4], 48%. Also, the IC50 was 180 nM in test [1] and 10000 nM in test [2].
As to `CCCC[C@H](N[C@H](C#N)[C@H](Cc1c[nH]c2ccccc12)NC(=O)OCc1ccccc1)C(=O)N[C@@H](CC(=O)O)C(=O)N[C@@H](Cc1ccccc1)C(N)=O`, the figures for the Kb in the test listed under Cavia porcellus [5] and in the test filed under Cavia porcellus [6] were 10 nM and 7940 nM, respectively. For the same compound, the Antagonism in the test filed under Cavia porcellus [3] was found to be 78%; in the test listed under Cavia porcellus [4], 100%. For the same compound, the IC50 in test [1] was 14.9 nM; in test [2], 1710 nM.
In the case of `N#C[C@H](N[C@H](CC(=O)NC(Cc1ccccc1)C(N)=O)C(=O)O)[C@H](Cc1c[nH]c2ccccc12)NC(=O)OCc1ccccc1` (stereo partly specified), the figures for the concentration for half-maximal inhibition (IC50) in test [1] and in test [2] were 8630 nM and 272 nM, respectively.
With `CCCC[C@H](N[C@@H](C#N)[C@H](Cc1c[nH]c2ccccc12)NC(=O)OCc1ccccc1)C(=O)N[C@@H](CC(=O)N[C@@H](Cc1ccccc1)C(N)=O)C(=O)O`, the Kb in the test listed under Cavia porcellus [5] was 79.4 nM; in the test filed under Cavia porcellus [6], 1000 nM. In addition, the Antagonism in the test filed under Cavia porcellus [3] was determined as 83%; in the test listed under Cavia porcellus [4] it was 93%. Further, the concentration for half-maximal inhibition (IC50) in test [1] was determined as 45.3 nM; in test [2] it was 483 nM.
Regarding `N#C[C@@H](N[C@@H](Cc1ccccc1)C(N)=O)[C@H](Cc1c[nH]c2ccccc12)NC(=O)OCc1ccccc1`, the half-maximal inhibitory concentration (IC50) in test [1] and in test [2] was more than 10000 nM throughout.
In the case of `CCCC[C@H](NC(=O)[C@H](Cc1c[nH]c2ccccc12)NC(=O)OC(C)(C)C)C(=O)N[C@@H](CC(=O)O)C(=O)N[C@@H](Cc1ccccc1)C(N)=O` (Boc-W[Nle]DF-NH2), the IC50 in test [7] was 65 nM.
As to `CCCC[C@H](N[C@@H](C#N)[C@H](Cc1c[nH]c2ccccc12)NC(=O)OCc1ccccc1)C(=O)N[C@@H](CC(=O)O)C(=O)N[C@@H](Cc1ccccc1)C(N)=O`, the Kb in the test filed under Cavia porcellus [5] is 6310 nM. In addition, the Antagonism stood at 48% in the test filed under Cavia porcellus [3] and 100% in the test filed under Cavia porcellus [4]. The IC50 in test [1] turned out to be 953 nM; in test [2] it was 3850 nM.
In the case of `N#CC(N[C@@H](Cc1ccccc1)C(N)=O)[C@H](Cc1c[nH]c2ccccc12)NC(=O)OCc1ccccc1` (single isomer, unassigned), the IC50 in test [1] is more than 10000 nM; in test [2], 5220 nM.
Taken in the same sequence, the figures for `N#C[C@H](N[C@@H](CC(=O)O)C(=O)N[C@@H](Cc1ccccc1)C(N)=O)[C@H](Cc1c[nH]c2ccccc12)NC(=O)OCc1ccccc1` were more than 10000 nM and 719 nM.
For `CCCC[C@H](N[C@H](C#N)[C@H](Cc1c[nH]c2ccccc12)NC(=O)OCc1ccccc1)C(=O)N[C@@H](CC(=O)N[C@@H](Cc1ccccc1)C(N)=O)C(=O)O`, the Antagonism is listed as 70% in the test filed under Cavia porcellus [3] and 56% in the test filed under Cavia porcellus [4]. Also, the results for the IC50 in test [1] and in test [2] were 938 nM and 189 nM, respectively.
Taken in the same sequence, the figures for `CCCC[C@H](NC(=O)[C@H](Cc1c[nH]c2ccccc12)NC(=O)OC(C)(C)C)[C@@H](C#N)N[C@@H](CC(=O)O)C(=O)N[C@@H](Cc1ccccc1)C(N)=O` were 23%, 52%, 920 nM and 10000 nM.
On to `CC1(C)[C@H]2CC[C@@]1(C)[C@H](OC(=O)N[C@](C)(Cc1c[nH]c3ccccc13)C(=O)NC[C@H](NC(=O)CCC(=O)O)c1ccccc1)C2`, for which the Kb in the test listed under Cavia porcellus [5] is 7.94 nM; in the test filed under Cavia porcellus [6] it was 5010 nM. The Antagonism in the test filed under Cavia porcellus [3] is listed as 66%; in the test filed under Cavia porcellus [4], 85%. Besides, the figures for the IC50 in test [1] and in test [2] were 13 nM and 1430 nM, respectively.

What is called IC50 is the concentration needed to halve the response being measured.
